One test has as its target T1, human FPR1 (Homo sapiens, UniProt P21462).
T1 sequence (P21462 1-350): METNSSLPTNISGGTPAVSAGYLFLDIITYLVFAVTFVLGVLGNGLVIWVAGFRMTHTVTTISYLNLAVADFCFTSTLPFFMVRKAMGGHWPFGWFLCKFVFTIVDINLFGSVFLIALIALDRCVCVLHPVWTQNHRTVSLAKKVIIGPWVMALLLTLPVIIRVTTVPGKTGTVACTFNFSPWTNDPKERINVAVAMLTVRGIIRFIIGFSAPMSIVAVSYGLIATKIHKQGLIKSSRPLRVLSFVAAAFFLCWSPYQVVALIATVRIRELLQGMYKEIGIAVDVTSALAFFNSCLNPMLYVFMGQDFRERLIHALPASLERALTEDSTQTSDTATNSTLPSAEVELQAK
Kind of test: FPR1 cyclic adenosine monophosphate (cAMP) assay. In kind it is cell-based. To be noted: CHO cells overexpressing human FPR1; forskolin 10 μM; inhibition of cAMP production; HTRF; read-out: hFPR1 cAMP2 EC50. Put shortly: (§1)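 CHO cells overexpressing human FPR1 (4,000/well) or FPR2 (2,000/well) were incubated 30 min at room temperature with compound (0.020 nM to 100 μM, 1% DMSO), IBMX 200 μM, and forskolin at 10 μM (FPR1) or 5 μM (FPR2), all final. HTRF cAMP read-out; inhibition fitted by 4-parameter logistic equation.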
Background: Changes in cAMP serve as a functional read-out for many G protein-coupled receptors.

Another test concerns the target T2, human FPR2 (Homo sapiens, UniProt P25090).
T2 sequence (P25090 1-351): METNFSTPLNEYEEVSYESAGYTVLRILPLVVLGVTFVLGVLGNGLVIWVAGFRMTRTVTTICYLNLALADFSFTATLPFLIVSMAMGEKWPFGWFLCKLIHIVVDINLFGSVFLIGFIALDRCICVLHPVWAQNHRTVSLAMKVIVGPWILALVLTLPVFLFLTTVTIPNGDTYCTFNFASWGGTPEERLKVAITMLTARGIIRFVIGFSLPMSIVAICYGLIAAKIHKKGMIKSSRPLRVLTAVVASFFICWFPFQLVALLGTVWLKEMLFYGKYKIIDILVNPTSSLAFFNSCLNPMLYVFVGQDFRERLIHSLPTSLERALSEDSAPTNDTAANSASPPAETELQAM
Kind of test: FPR2 cyclic adenosine monophosphate (cAMP) assay. The following applies: CHO cells overexpressing human FPR2; forskolin 5 μM; inhibition of cAMP production; HTRF; read-out: hFPR2 cAMP2 EC50. In kind it is cell-based. In outline: as §1

Consider `COC(=O)c1cc(Cl)cc(-n2c(=O)c(NC(=O)c3ccc(OC(F)F)cc3)c(-c3c(F)cc(OC)cc3F)n2C)c1` [Example 120, methyl 3-chloro-5-[3-(2,6-difluoro-4-methoxyphenyl)-4-[4-(difluoromethoxy)benzamido]-2-methyl-5-oxo-2,5-dihydro-1H-pyrazol-1-yl]benzoate], for which the EC50 – broadly, the concentration giving half of the maximal effect – on human FPR1 stood at 6000 nM; at human FPR2, 4 nM.
For `COc1cc(F)c(-c2c(NC(=O)c3ccc(OC(F)(F)F)cc3)c(=O)n(-c3ccc(F)cc3)n2C)c(F)c1` [Example 10, N-[5-(2,6-difluoro-4-methoxyphenyl)-2-(4-fluorophenyl)-1-methyl-3-oxo-2,3-dihydro-1H-pyrazol-4-yl]-4-(trifluoromethoxy)benzamide], in that order: 920 nM and 14 nM.
As for `COc1cc(F)c(-c2c(NC(=O)c3ccc(OC(F)F)cc3)c(=O)n(-c3nccc(N4CCN(C)CC4)c3C(F)(F)F)n2C)c(F)c1` [Example 224, N-[5-(2,6-difluoro-4-methoxyphenyl)-1-methyl-2-[4-(4-methylpiperazin-1-yl)-3-(trifluoromethyl)pyridin-2-yl]-3-oxo-2,3-dihydro-1H-pyrazol-4-yl]-4-(difluoromethoxy)benzamide], the 50% effective concentration (EC50) at human FPR1 is greater than 5000 nM; on human FPR2, 15 nM.
For `COc1ccc(-c2c(NC(=O)c3ccc(OC(F)F)cc3)c(=O)n(-c3ncccc3C(F)(F)F)n2C)cc1` [Example 250, 4-(difluoromethoxy)-N-[5-(4-methoxyphenyl)-1-methyl-3-oxo-2-[3-(trifluoromethyl)pyridin-2-yl]-2,3-dihydro-1H-pyrazol-4-yl]benzamide], in that order: 970 nM and 13 nM.
For `COc1cc(F)c(-c2c(NC(=O)c3ccc(OC(F)F)cc3)c(=O)n(-c3cccc(C)c3C)n2C)c(F)c1` [Example 3, N-[5-(2,6-difluoro-4-methoxyphenyl)-2-(2,3-dimethylphenyl)-1-methyl-3-oxo-2,3-dihydro-1H-pyrazol-4-yl]-4-(difluoromethoxy)benzamide], in that order: 1900 nM and 8 nM.
`COc1cc(F)c(-c2c(NC(=O)c3ccc(OC(F)F)cc3)c(=O)n(-c3cc(C)cc(C4CCN(C)CC4)n3)n2C)c(F)c1` [Example 361]: the concentration giving a half-maximal response (EC50) on human FPR1 was greater than 10000 nM; at human FPR2, 1 nM.
For `COc1cccc(-n2c(=O)c(NC(=O)c3ccc(OC(F)F)cc3)c(-c3ccc(OC(F)F)cc3)n2C)n1` [Example 315, 4-(difluoromethoxy)-N-{5-[4-(difluoromethoxy)phenyl]-2-(6-methoxypyridin-2-yl)-1-methyl-3-oxo-2,3-dihydro-1H-pyrazol-4-yl}benzamide], in that order: 290 nM and 30 nM.
For `COc1cc(F)c(-c2c(NC(=O)c3ccc(OC(F)F)cc3)c(=O)n(-c3nc(C(F)(F)F)ccc3OCC3CCOC3)n2C)c(F)c1` (stereo not shown) [Example 370, N-(5-(2,6-Difluoro-4-methoxyphenyl)-1-methyl-3-oxo-2-(3-((tetrahydrofuran-3-yl)methoxy)-6-(trifluoromethyl)pyridin-2-yl)-2,3-dihydro-1H-pyrazol-4-yl)-4-(difluoromethoxy)benzamide], in that order: greater than 10000 nM and 5 nM.
For `COc1cc(F)c(-c2c(NC(=O)c3ccc(OC(F)F)cc3)c(=O)n(-c3nc(NC[C@@H](C)O)ccc3C(F)(F)F)n2C)c(F)c1` [Example 273], in that order: greater than 5000 nM and 3 nM.
As to `COc1cc(F)c(-c2c(NC(=O)c3ccc(OC(F)F)cc3)c(=O)n(-c3cccc(OCC(C)(C)O)n3)n2C)c(F)c1` [Example 392, N-(5-(2,6-Difluoro-4-methoxyphenyl)-2-(6-(2-hydroxy-2-methylpropoxy)pyridin-2-yl)-1-methyl-3-oxo-2,3-dihydro-1H-pyrazol-4-yl)-4-(difluoromethoxy)benzamide], the EC50 was determined as 830 nM on human FPR1 and 22 nM on human FPR2.
For `COc1cc(F)c(-c2c(NC(=O)c3ccc(OC(F)F)cc3)c(=O)n(-c3cc(OCC4(C)COC4)cc(C(F)(F)F)n3)n2C)c(F)c1` [Example 349, N-(5-(2,6-Difluoro-4-methoxyphenyl)-1-methyl-2-(4-((3-methyloxetan-3-yl)methoxy)-6-(trifluoromethyl)pyridin-2-yl)-3-oxo-2,3-dihydro-1H-pyrazol-4-yl)-4-(difluoromethoxy)benzamide], in that order: 94 nM and 22 nM.
For `COc1cc(F)c(-c2c(NC(=O)c3ccc(OC(F)F)cc3)c(=O)n(-c3ccccn3)n2C)c(F)c1` [Example 44, N-[5-(2,6-difluoro-4-methoxyphenyl)-1-methyl-3-oxo-2-(pyridin-2-yl)-2,3-dihydro-1H-pyrazol-4-yl]-4-(difluoromethoxy)benzamide], in that order: greater than 10000 nM and 16 nM.
For `COc1cc(F)c(-c2c(NC(=O)c3ccc(OC(F)F)cc3)c(=O)n(-c3nc(N4CC[C@H](O)C4)ccc3C(F)(F)F)n2C)c(F)c1` [Example 280, N-[5-(2,6-difluoro-4-methoxyphenyl)-2-{6-[(3S)-3-hydroxypyrrolidin-1-yl]-3-(trifluoromethyl)pyridin-2-yl}-1-methyl-3-oxo-2,3-dihydro-1H-pyrazol-4-yl]-4-(difluoromethoxy)benzamide], in that order: 2700 nM and 2 nM.
On to `COc1cc(F)c(-c2c(NC(=O)c3ccc(OC(F)F)cc3)c(=O)n(-c3ccc(F)cc3)n2C)c(F)c1` [Example 12, N-[5-(2,6-difluoro-4-methoxyphenyl)-2-(4-fluorophenyl)-1-methyl-3-oxo-2,3-dihydro-1H-pyrazol-4-yl]-4-(difluoromethoxy)benzamide], for which the EC50 at human FPR1 was found to be 1600 nM; at human FPR2 it was 17 nM.
For `COc1cc(F)c(-c2c(NC(=O)c3ccc(OC(F)(F)F)cc3)c(=O)n(-c3cccnc3C#N)n2C)c(F)c1` [Example 170, N-[2-(2-cyanopyridin-3-yl)-5-(2,6-difluoro-4-methoxyphenyl)-1-methyl-3-oxo-2,3-dihydro-1H-pyrazol-4-yl]-4-(trifluoromethoxy)benzamide], in that order: greater than 10000 nM and 8 nM.
For `COc1cc(F)c(-c2c(NC(=O)c3ccc(OC(F)F)cc3)c(=O)n(-c3cccc(N4CC(F)(F)C4)n3)n2C)c(F)c1` [Example 104, N-[5-(2,6-difluoro-4-methoxyphenyl)-2-[6-(3,3-difluoroazetidin-1-yl)pyridin-2-yl]-1-methyl-3-oxo-2,3-dihydro-1H-pyrazol-4-yl]-4-(difluoromethoxy)benzamide], in that order: 6200 nM and 3 nM.
For `COc1cc(F)c(-c2c(NC(=O)c3ccc(OC(F)F)cc3)c(=O)n(-c3nc(C(F)(F)F)ccc3OC[C@H](C)O)n2C)c(F)c1` [Example 373, (S)-N-(5-(2,6-Difluoro-4-methoxyphenyl)-2-(3-(2-hydroxypropoxy)-6-(trifluoromethyl)pyridin-2-yl)-1-methyl-3-oxo-2,3-dihydro-1H-pyrazol-4-yl)-4-(difluoromethoxy)benzamide], in that order: greater than 10000 nM and 16 nM.

The record behind these values is patent publication US12577206B2 (BRISTOL-MYERS SQUIBB COMPANY, priority 2020, dated 2026).
